Measurements as given in paper PMC6896172, “Successful Targeting of the Warburg Effect in Prostate Cancer by Glucose-Conjugated 1,4-Naphthoquinones” (Cancers, 2019).
pIC50: −log10 of the molar value.

How the values were obtained:
Assay type in all cases: cell-based, human
[1] = tested on: PC-3 cells; assay: MTT cytotoxicity assay in PC-3 cells
Excerpt: (§1) For general experiments human prostate cancer cell lines PC-3 and DU145 (docetaxel-resistant, androgen-independent, AR-FL(−), AR-V7(−)), 22Rv1 and VCaP (docetaxel-sensitive, androgen-independent, AR-FL(+), AR-V7(+), and LNCaP (docetaxel sensitive, androgen-dependent, AR-FL(+), AR-V7(−) were used. PC-3, 22Rv1, LNCaP cells as well as the human prostate non-cancer cells PNT2 and RWPE-1 were purchased from ATCC (Manassas, VA, USA). VCaP were purchased from ECACC (Salisbury, UK). The human fibroblast cell line MRC-9, the human embryonic kidney cell line HEK 293T, as well as the human umbilical vascular endothelial cell line HUVEC were kindly donated by Prof. Dr. Dr. med. Sonja Loges (University Medical Center Hamburg-Eppendorf, Hamburg, Germany). Cells were cultured according to the manufacturers’ instructions and were recently authenticated by a commercial service (Multiplexion, Heidelberg, Germany). Culture conditions are described in the Supplementary Information.
(§2) MTT (3-(4,5-dimethylthiazol-2-yl)-2,5-diphenyltetrazolium bromide) cytotoxicity assay was used for the evaluation of cytotoxicity of the compounds or their combinations. Experiments were performed as previously described. In brief, 6000 cells/well were seeded in 96-well plate, incubated overnight, and treated with the drugs in 100 µL/well of 10% FBS/RPMI media containing 2 g/L of D-(+)-glucose for 48 h, unless otherwise stated. For 2 h treatment the cells were treated with the drugs for 2 h in the culture media, then the media was exchanged to fresh drug-free media (100 µL/well) containing MTT reagent and the further steps were performed as previously described.
(§3) Table S4. Cytotoxic activity of the synthesized compounds. Cytotoxicity was determined in human prostate cancer PC-3 cells versus human prostate non-cancer
(§4) PNT2 cells after 48 h of treatment, as well as its ratio. IC50 was evaluated using MTT assay. SI–selectivity index. #–the IC50s in both cell lines were >100 µM.
(§5) Anisomycin was used as a reference substance.
(§6) No Formula IC50(PC-3) IC50(PNT2) SI […]

[2] = tested on: PNT2 cells; assay: MTT cytotoxicity assay in PNT2 cells; settings: 48 h of treatment
Excerpt: as §1, §2, §3, §4, §5, §6

[3] = tested on: 22Rv1 cells; assay: Intracellular ROS (CM-H2DCFDA, flow cytometry); settings: 2 h of treatment
Experimental: Intracellular ROS levels were estimated using the ROS-sensitive CM-H2DCFDA reagent (Cat. No. C6827, Molecular probes, Invitrogen, Eugene, OR, USA) as described before. In brief, 22Rv1 cells were seeded in 12-well plates (0.2 × 10^6 cells/well in 1 mL/well of media) and incubated overnight. The media was changed into freshly made pre-warmed 4 µM CM-H2DCFDA/PBS (0.5 mL/well) and incubated for 30 min (37 °C, 5% CO2, in the dark). Then, the CM-H2DCFDA solution was exchanged with 1 mL/well of pre-warmed PBS containing the drugs or H2O2 (positive control) at the indicated concentrations. After 2 h of incubation the cells were trypsinized and immediately analyzed by flow cytometry technique according to the manufacture’s protocols.

Compound: CC1(C)OC2OC(C(O)COC3=CC(=O)c4cccc(O)c4C3=O)C(O)C2O1 (centres unmarked) [Compound 11]
- pIC50 ([1]; Homo sapiens, PC-3, 48 h, 48 h of treatment): 5.68
- SI [IC50(PNT2) / IC50(PC-3)] ([1]; ratio of IC50 in PNT2 cells to IC50 in PC-3 cells, 48 h): 2.40
- pIC50 [2]: 5.30
- pIC50 ([2]; Homo sapiens, PNT2, 48 h): 5.30
- effect on ROS level [3]: remarkable and significant increase of the ROS level
